# Data: ChEMBL document CHEMBL5696442, “Discovery of type II inhibitors of TGFβ-activated kinase 1 (TAK1) and mitogen-activated protein kinase kinase kinase kinase 2 (MAP4K2)” (J Med Chem, 2015)
# What was measured:
# [1] = target: T1, Myotonin-protein kinase (Homo sapiens) (UniProt Q09013); assay: Inhibition of DMPK1 K2 labeling site in human Huh-7 cells at 10 uM by KiNativ Profiling analysis relative to control; assay type: cell-based
# T1 sequence (whole entry): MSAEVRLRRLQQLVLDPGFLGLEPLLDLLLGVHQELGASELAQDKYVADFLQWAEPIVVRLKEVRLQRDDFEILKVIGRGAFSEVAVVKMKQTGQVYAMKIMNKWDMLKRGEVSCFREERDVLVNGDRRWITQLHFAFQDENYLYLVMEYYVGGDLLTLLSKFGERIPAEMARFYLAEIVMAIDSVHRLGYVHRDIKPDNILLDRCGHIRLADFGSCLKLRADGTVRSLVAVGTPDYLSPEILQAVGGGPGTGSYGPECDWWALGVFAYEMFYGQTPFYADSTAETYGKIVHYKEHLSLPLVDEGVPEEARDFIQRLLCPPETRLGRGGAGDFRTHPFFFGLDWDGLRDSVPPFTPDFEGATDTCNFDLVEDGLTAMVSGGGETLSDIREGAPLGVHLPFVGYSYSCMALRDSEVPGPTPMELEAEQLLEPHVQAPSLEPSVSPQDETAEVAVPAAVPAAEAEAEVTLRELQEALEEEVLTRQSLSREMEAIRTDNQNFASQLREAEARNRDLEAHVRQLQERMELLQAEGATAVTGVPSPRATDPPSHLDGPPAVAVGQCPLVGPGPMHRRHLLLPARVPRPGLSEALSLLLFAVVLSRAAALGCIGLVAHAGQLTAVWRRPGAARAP
# [2] = Inhibition of MLK1/4 K2 labeling site in human Huh-7 cells at 1 uM by KiNativ Profiling analysis relative to control; conditions: condition cancer
# [3] = target: Hepatocyte growth factor receptor (Homo sapiens) (UniProt P08581); assay: Inhibition of MET ACT labeling site in human Huh-7 cells at 10 uM by KiNativ Profiling analysis relative to control; assay type: cell-based
# Hepatocyte growth factor receptor (Homo sapiens), sequence (P08581 whole entry): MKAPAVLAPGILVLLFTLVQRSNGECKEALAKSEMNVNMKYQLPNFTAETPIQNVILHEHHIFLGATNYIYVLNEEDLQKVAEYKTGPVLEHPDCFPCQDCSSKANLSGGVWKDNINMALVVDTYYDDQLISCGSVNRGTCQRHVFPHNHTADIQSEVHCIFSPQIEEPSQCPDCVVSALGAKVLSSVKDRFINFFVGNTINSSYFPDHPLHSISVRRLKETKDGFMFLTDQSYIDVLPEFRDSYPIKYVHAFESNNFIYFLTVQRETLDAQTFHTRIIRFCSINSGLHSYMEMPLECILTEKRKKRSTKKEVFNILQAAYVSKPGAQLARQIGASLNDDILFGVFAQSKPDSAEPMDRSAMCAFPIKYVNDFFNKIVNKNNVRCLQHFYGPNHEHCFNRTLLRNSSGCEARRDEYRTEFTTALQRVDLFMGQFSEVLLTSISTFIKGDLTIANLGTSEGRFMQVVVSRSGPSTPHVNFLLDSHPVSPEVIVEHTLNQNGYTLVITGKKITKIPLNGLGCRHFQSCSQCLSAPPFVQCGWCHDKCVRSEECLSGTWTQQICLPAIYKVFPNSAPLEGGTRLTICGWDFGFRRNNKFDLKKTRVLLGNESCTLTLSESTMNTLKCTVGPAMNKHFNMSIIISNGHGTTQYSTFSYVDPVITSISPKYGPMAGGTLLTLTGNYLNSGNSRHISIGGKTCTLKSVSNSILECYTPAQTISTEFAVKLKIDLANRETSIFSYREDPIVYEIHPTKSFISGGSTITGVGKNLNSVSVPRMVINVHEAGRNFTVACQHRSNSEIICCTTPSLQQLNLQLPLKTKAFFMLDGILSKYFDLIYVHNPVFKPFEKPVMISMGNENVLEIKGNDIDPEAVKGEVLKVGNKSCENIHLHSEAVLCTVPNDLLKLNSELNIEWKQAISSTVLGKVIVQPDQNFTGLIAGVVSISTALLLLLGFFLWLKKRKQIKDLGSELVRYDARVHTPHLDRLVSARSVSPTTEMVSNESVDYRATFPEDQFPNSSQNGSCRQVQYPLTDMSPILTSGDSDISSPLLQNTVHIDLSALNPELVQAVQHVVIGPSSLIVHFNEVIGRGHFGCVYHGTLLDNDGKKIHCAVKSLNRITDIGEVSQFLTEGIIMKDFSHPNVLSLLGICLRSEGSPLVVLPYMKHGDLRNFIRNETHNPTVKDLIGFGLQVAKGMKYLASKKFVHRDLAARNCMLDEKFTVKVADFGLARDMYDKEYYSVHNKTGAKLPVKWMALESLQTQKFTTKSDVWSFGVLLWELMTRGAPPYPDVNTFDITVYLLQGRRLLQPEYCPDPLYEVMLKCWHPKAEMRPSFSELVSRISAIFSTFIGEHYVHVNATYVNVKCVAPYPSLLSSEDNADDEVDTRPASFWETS
# [4] = target: T2, Serine/threonine-protein kinase LATS2 (Homo sapiens) (UniProt Q9NRM7); assay: Inhibition of LATS2 Lys2 labeling site in human A-375 cells at 5 uM by KiNativ Profiling analysis relative to control; assay type: cell-based
# T2 sequence (whole entry): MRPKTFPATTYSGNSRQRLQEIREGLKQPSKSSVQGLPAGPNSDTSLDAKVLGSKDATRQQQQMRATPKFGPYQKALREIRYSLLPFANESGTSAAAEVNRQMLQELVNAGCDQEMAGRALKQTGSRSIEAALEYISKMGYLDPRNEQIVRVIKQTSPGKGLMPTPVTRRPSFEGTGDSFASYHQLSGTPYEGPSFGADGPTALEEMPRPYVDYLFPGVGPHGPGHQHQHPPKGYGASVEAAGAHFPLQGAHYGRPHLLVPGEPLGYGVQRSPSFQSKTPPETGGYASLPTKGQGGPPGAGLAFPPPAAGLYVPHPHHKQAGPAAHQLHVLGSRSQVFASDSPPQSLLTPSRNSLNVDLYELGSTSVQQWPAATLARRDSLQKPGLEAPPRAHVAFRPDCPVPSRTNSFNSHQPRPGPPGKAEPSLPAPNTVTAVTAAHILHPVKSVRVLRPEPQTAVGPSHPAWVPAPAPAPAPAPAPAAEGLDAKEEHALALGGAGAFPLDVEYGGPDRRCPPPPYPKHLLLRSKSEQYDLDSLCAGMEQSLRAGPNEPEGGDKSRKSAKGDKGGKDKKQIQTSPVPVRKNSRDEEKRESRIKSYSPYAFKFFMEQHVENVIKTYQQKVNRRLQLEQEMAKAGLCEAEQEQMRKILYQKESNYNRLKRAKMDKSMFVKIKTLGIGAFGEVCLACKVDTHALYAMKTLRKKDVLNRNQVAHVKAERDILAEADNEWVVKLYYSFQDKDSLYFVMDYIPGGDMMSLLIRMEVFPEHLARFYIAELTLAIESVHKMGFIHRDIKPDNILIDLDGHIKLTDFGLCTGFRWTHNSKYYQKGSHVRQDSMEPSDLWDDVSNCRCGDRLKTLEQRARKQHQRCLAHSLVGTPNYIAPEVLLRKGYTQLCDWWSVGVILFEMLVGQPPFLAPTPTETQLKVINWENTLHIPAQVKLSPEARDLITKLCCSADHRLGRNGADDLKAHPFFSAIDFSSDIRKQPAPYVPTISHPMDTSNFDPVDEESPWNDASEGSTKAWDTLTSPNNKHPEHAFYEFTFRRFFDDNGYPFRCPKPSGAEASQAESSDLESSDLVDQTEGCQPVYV
# [5] = target: Phosphatidylinositol 4-kinase alpha (Homo sapiens) (UniProt P42356); assay: Inhibition of PIK4CA ATP labeling site in human Huh-7 cells at 1 uM by KiNativ Profiling analysis relative to control; assay type: cell-based
# Phosphatidylinositol 4-kinase alpha (Homo sapiens), sequence (P42356 whole entry, looked up): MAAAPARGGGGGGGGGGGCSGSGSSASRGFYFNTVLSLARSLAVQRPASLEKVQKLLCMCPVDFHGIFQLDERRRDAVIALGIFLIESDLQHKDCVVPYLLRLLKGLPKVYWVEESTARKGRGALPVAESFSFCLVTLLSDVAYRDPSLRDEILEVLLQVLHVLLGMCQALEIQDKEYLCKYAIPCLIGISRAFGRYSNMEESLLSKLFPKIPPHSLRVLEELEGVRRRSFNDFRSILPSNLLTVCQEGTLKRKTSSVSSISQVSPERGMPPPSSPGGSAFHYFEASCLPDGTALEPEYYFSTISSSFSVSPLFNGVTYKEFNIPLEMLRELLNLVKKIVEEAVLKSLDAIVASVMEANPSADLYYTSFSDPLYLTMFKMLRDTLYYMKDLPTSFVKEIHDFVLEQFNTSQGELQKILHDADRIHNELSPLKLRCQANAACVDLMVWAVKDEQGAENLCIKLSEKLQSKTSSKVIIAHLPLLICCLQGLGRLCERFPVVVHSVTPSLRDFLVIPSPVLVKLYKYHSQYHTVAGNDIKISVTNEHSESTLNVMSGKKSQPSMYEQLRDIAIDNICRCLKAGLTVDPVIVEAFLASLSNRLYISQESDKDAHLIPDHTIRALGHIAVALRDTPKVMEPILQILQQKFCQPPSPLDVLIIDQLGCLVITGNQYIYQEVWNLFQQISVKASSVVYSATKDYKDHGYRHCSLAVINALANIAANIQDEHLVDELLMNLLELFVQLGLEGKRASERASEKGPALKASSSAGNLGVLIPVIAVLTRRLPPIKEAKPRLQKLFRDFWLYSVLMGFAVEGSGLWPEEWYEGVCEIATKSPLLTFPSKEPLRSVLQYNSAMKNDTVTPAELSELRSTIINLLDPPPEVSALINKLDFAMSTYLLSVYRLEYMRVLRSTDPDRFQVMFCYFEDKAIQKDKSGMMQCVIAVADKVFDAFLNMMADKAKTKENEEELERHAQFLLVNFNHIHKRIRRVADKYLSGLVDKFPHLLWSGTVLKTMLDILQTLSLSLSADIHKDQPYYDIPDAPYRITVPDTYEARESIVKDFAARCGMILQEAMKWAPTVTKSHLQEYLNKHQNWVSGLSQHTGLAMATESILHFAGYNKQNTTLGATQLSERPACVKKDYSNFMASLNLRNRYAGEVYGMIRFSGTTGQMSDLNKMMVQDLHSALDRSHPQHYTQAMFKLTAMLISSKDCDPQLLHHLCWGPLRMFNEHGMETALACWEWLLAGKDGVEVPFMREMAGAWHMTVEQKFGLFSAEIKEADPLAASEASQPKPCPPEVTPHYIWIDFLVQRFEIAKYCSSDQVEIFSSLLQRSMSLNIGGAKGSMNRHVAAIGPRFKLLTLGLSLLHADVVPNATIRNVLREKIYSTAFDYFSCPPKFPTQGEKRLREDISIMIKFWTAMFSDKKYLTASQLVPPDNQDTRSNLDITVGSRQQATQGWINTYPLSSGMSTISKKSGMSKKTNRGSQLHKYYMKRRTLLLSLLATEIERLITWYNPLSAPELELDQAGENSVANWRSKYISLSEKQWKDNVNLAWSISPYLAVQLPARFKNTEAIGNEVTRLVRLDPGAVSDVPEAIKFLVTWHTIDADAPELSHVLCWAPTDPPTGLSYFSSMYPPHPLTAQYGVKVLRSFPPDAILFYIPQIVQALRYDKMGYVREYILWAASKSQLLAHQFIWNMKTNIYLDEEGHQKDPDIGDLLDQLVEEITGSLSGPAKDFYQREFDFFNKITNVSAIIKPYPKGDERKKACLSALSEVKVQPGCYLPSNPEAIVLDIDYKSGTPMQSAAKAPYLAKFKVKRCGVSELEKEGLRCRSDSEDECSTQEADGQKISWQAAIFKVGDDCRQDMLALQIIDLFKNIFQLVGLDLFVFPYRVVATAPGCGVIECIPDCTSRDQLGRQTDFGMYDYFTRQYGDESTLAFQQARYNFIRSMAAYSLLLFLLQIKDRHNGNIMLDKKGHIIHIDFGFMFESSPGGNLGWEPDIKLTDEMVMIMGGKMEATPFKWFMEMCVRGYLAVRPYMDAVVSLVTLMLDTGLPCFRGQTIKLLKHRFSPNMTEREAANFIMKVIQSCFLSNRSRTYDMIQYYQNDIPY
# [6] = target: Ephrin type-B receptor 3 (Homo sapiens) (UniProt P54753); assay: Inhibition of EPHB3 (unknown origin) at 1 uM by Ambit Kinomescan binding assay relative to control; values are per cent of control
# Ephrin type-B receptor 3 (Homo sapiens), sequence (P54753 whole entry): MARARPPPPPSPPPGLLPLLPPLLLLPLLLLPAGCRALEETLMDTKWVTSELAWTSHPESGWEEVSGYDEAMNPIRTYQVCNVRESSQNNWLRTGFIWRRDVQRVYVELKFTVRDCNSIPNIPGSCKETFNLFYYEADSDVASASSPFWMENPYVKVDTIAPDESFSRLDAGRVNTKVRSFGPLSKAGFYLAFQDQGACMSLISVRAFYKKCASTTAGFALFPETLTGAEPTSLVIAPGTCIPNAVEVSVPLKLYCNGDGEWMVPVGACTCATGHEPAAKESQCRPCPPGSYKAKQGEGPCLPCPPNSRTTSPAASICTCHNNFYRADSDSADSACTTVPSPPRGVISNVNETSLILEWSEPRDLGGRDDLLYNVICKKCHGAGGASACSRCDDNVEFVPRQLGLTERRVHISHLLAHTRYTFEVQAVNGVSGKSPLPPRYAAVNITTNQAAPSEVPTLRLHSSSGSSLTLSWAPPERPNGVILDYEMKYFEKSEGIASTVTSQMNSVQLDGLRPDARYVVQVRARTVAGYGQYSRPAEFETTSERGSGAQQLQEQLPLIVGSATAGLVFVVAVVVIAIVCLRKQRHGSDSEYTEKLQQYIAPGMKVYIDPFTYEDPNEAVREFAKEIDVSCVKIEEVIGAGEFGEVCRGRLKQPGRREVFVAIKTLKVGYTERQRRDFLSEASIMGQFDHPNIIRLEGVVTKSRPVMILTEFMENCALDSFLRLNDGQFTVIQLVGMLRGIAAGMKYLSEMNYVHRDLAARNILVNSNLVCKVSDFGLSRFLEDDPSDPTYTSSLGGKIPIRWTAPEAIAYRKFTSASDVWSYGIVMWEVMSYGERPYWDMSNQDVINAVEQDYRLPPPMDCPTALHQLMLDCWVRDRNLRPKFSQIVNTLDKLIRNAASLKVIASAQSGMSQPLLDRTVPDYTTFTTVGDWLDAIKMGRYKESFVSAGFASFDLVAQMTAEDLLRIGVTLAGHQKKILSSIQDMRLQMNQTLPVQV
# [7] = target: Mitogen-activated protein kinase 14 (Homo sapiens, UniProt Q16539); assay: Inhibition of p38 alpha (unknown origin) at 1 uM by Ambit Kinomescan binding assay relative to control; values are per cent of control
# Mitogen-activated protein kinase 14, sequence (Q16539 whole entry): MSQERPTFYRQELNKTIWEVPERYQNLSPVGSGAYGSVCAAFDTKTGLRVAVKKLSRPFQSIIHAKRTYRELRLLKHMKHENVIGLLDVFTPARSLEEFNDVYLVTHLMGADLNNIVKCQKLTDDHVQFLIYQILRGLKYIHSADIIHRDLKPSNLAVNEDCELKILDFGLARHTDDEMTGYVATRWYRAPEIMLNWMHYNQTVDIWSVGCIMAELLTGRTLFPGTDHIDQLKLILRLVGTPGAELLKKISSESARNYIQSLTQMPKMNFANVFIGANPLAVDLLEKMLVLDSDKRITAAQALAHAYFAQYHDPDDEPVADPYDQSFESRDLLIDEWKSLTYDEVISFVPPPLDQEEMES
# [8] = target: T3, Mitogen-activated protein kinase kinase kinase 2 (Homo sapiens) (UniProt Q9Y2U5); assay: Inhibition of MAP3K2 Lys1 labeling site in human Huh-7 cell lysate at 1 uM by KiNativ Profiling analysis relative to control; assay type: subcellular
# T3 sequence (whole entry): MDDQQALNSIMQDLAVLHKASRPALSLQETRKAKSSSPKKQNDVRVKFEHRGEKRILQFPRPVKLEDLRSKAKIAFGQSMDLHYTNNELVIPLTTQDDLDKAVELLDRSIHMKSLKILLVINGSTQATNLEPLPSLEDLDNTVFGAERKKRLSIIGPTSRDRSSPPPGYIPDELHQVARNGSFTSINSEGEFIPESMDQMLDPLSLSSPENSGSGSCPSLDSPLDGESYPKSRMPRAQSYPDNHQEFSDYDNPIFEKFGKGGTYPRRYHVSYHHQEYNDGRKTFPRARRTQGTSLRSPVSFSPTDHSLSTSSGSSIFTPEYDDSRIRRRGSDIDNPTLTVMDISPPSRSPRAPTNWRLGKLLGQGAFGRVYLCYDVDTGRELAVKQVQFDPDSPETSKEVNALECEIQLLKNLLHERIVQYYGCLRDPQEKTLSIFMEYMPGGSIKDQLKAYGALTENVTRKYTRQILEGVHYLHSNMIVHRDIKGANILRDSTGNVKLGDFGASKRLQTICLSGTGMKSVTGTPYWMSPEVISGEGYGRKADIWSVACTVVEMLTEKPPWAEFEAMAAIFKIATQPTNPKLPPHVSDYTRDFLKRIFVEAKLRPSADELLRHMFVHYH
# [9] = target: Mitogen-activated protein kinase 7 (Homo sapiens) (UniProt Q13164); assay: Inhibition of Erk5 Lys2 labeling site in human Huh-7 cell lysate at 1 uM by KiNativ Profiling analysis relative to control; assay type: subcellular
structure (smiles),measurement,setting,value
CCN1CCN(Cc2ccc(NC(=O)c3ccc(C)c(Oc4ccnc5[nH]ccc45)c3)cc2C(F)(F)F)CC1,inhibition,[1],2.8%
same,inhibition at 1 µM,[2],1.5%
same,inhibition,[3],-8%
same,inhibition,[4],5.5%
same,inhibition,[5],3.5%
CCN1CCN(Cc2ccc(NC(=O)c3ccc(C)c(/C=C/c4cnc5[nH]ccc5c4OC)c3)cc2C(F)(F)F)CC1,residual activity,[6],63%
same,residual activity,[7],1.7%
CNc1cc(Oc2cc(C(=O)Nc3cc(N4CCN(C)CC4)cc(C(F)(F)F)c3)ccc2C)ncn1,inhibition,[8],11%
same,inhibition,[9],-6.5%
